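Tested at 5 concentrations; 48 h exposure; 96-well plates; endpoints linearly interpolated, else capped at highest concentration. GI50 = concentration required for 50% inhibition of growth. TGI: total growth inhibition.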
Legend:
Experiment in all cases: NCI tumour cell line growth inhibition, 48 h
[1] = test system: HCT-116 colon
[2] = test system: HCT-15 colon
[3] = test system: HL-60(TB) leukemia
[4] = test system: HOP-62 NSCLC
[5] = test system: HOP-92 NSCLC
[6] = test system: K-562 leukemia
[7] = test system: KM12 colon
[8] = test system: NCI/ADR-RES ovarian
[9] = test system: OVCAR-3 ovarian
[10] = test system: SF-539 CNS

SMILES | GI50 [1] [µM] | TGI [1] [µM] | GI50 [2] [µM] | TGI [2] [µM] | GI50 [3] [µM] | TGI [3] [µM] | GI50 [4] [µM] | TGI [4] [µM] | GI50 [5] [µM] | TGI [5] [µM] | GI50 [6] [µM] | TGI [6] [µM] | GI50 [7] [µM] | TGI [7] [µM] | GI50 [8] [µM] | TGI [8] [µM] | GI50 [9] [µM] | TGI [9] [µM] | GI50 [10] [µM] | TGI [10] [µM]
CC(C)CC(CC1=CCC2CC1C2(C)C)C1=C(O)C(C)(C)C(=O)C(C)(C)C1=O (stereo not given) | 0.376 | 1.46 | 0.35 | 5.18 | 0.205 | 0.423 | 0.303 | 1.14 | 0.191 | 0.499 | 0.334 | > 100 | 0.328 | 2.79 | 0.306 | 0.979 | 0.359 | > 100 | 0.357 | > 100
CCCCCCCCCCCCCCCCCC(=O)OCC(COC1OC(COP(=O)(O)O)C(O)C(O)C1O)OC(=O)CCCCCCCCCCCCCCCCC (stereo not given) | – | 16.2 | – | 14.4 | – | 21.1 | – | 15.1 | – | 10.5 | – | 18.7 | – | 13 | – | 18.2 | – | 16 | – | 18.1
CC(C)(C)c1ccc(OCCCCCCN2CCNCC2)cc1 | 3.18 | 13.9 | 3.04 | 10 | 1.98 | 4.32 | 11 | 25.8 | 3.31 | 19.7 | 1.75 | 4.48 | 3.89 | 13.8 | 14.3 | 33.7 | 7.38 | 20.8 | 5.98 | 20.6
N/C(=N\N=C\c1ccc(-c2ccccc2)cc1)N[N+](=O)[O-] | 1.97 | > 100 | 2.03 | > 100 | 1.9 | 7.58 | 2.64 | > 100 | 2.18 | > 100 | 0.481 | > 100 | 1.27 | > 100 | 1.46 | > 86.1 | 1.67 | 9.5 | 2.12 | > 100
Cc1cc(N/N=C/c2nc(-c3ccc(Br)cc3)oc2C)c2cc(Cl)ccc2n1 | > 100 | > 100 | > 100 | > 100 | > 100 | > 100 | > 100 | > 100 | > 100 | > 100 | > 100 | > 100 | > 100 | > 100 | > 100 | > 100 | > 100 | > 100 | > 100 | > 100
C=CC(=O)N(C)[C@H]1C[C@H]2OC(C)(C1OC)n1c3ccccc3c3c4c(c5c6ccccc6n2c5c31)C(=O)NC4 (stereo not given in full) | 0.0681 | 0.672 | 0.099 | 0.644 | 0.129 | 1.59 | 0.0193 | 0.176 | 0.0402 | 0.266 | 0.233 | > 50 | 0.0228 | 0.79 | 0.182 | 3.59 | 0.16 | 0.851 | 0.083 | 0.379
CN(C)c1ccc(/C=C\c2cccc[n+]2C)cc1 | 4.16 | > 100 | 92.8 | > 100 | 3.09 | > 100 | 5.83 | 90.7 | 4.85 | 32.8 | 2.22 | > 100 | 0.821 | 13.4 | > 100 | > 100 | 3.3 | 30.1 | 12.3 | > 100
O=[N+]([O-])c1cccc(-c2nc3sccn3c2-c2ccnc(NCCCNS(=O)(=O)c3cccc(F)c3)n2)c1 | 2.74 | > 100 | 2.3 | 12.3 | 2.97 | 8.57 | 3.5 | 14.1 | 2.8 | 30.3 | 1.73 | > 100 | 2.39 | 8.14 | 1.72 | 6.49 | 2.53 | 11.9 | 4.04 | 20.8
CC(CN1CCN(CCOCCO)CC1)CN1c2ccccc2Sc2ccc(Cl)cc21 (stereo not given) | 2.03 | 4.35 | 1.85 | 3.76 | 1.76 | 4.01 | 3.52 | 13.4 | 1.01 | 4.63 | 1.96 | 4.18 | 2.78 | 8.21 | 4.39 | 18.1 | 3.62 | 12.7 | 2.52 | 6.94
COC(=O)Cn1c2c(c3c(O)cccc31)C(=O)c1ccccc1-2 | > 100 | > 100 | > 100 | > 100 | > 100 | > 100 | > 100 | > 100 | 27 | > 100 | > 100 | > 100 | > 100 | > 100 | > 100 | > 100 | > 100 | > 100 | > 100 | > 100
Cc1cc2c3ccc(C)[n+](C)c3ccc2n1C | 2.31 | 33.1 | > 100 | > 100 | 1.92 | 18.7 | 2.8 | 18.8 | 1.97 | 19.6 | 1.52 | > 100 | 0.723 | 3.46 | > 100 | > 100 | 3.45 | 23.2 | 3.89 | 21.3
C=CC(=O)Nc1cccc(C)c1Nc1cc(-c2cccnc2Cc2c(C)c(OC)cc(OC)c2C)ncn1 | 16.6 | 44.6 | 14.4 | 47.2 | 5.22 | 48.9 | 19 | 75.7 | 9.91 | 47.3 | 7.55 | > 100 | 13.4 | 34.2 | 9.9 | 38 | 7.04 | 38.9 | 3.47 | 38.2
CNC(=O)OCc1c(COC(=O)NC)c(C)n(-c2ccc(Br)cc2)c1C | – | 25.8 | – | 29.1 | – | 31.9 | – | 29.1 | – | 31 | – | 95.1 | – | 30.8 | – | 34.9 | – | 30.4 | – | 30.3
CCCn1c(C)nc2c1C(=O)c1ccccc1C2=O | 23.7 | 65.9 | 14.2 | > 100 | 9.61 | 45.8 | 41.3 | > 100 | > 100 | > 100 | 9.87 | > 100 | 32.2 | > 100 | 22.9 | > 100 | 11.6 | 39.2 | 27.1 | > 100
O=C1C=C(Br)c2c(-c3ccccc3)oc3cccc1c23 | – | > 100 | – | > 87.1 | – | > 63.2 | – | > 100 | – | > 100 | – | > 86.8 | – | > 100 | – | > 100 | – | > 100 | – | > 94.2
Nc1ncnc2[nH]ncc12 | 0.511 | 10.5 | 0.281 | > 100 | 0.361 | 2.56 | 2.23 | > 100 | 0.431 | 3.61 | 0.279 | > 100 | 1.26 | 18.3 | 0.388 | 12.2 | 0.863 | 4.38 | 4.17 | > 100
C=C1CC[C@@H]2[C@](C)(COC(C)=O)[C@@H](O)CC[C@@]2(C)[C@@H]1COc1ccc2ccc(=O)oc2c1 | > 100 | > 100 | > 100 | > 100 | > 100 | > 100 | > 100 | > 100 | > 100 | > 100 | 62.6 | > 100 | > 100 | > 100 | > 100 | > 100 | > 100 | > 100 | 53.3 | > 100
CN1CCN(Cc2ccc(NC(=O)c3cncc(C#Cc4cnc(N)c5ccncc45)c3)cc2C(F)(F)F)CC1 | 0.442 | 3.04 | 1.42 | 5.84 | 0.387 | 2.89 | 1.03 | > 16.6 | 0.306 | 1.93 | 0.0146 | 5.21 | 0.027 | 5.52 | 6.74 | 16.5 | 1.53 | 7.51 | 0.484 | 2.03
COc1ccc(-c2cc(-c3ccccc3)nc(SCCCC(=O)NO)n2)cc1 | 0.531 | 12.7 | 0.387 | 3.34 | 1.18 | 7 | 0.994 | 8.88 | 1.71 | 5.42 | 0.762 | 18 | 1.72 | 5.29 | 0.267 | 1.6 | 1.2 | 5.17 | 1.47 | 4.32
O=C(N/N=C/c1ccc2c(c1)CCC2)c1ccccc1O | – | 43.7 | – | 69.6 | – | > 100 | – | 38 | – | 65.3 | – | > 100 | – | 50.7 | – | 73.8 | – | 41.5 | – | 65.8
